Reference: patent US20170051034A1 (Novo Nordisk A/S, priority 2010, published 2017)
Peptide text beside a SMILES is read from it.

How the values were obtained:
[1] = ThT fibrillation assay (lag time and recovery); format: physicochemical; conditions: Table 2
Method: This has traditionally been measured by visual inspection of the sample. However, that kind of measurement is very subjective and depending on the observer. Therefore, the application of a small molecule indicator probe is much more advantageous. […] Enzymol.
The constant t0 is the time needed to reach 50% of maximum fluorescence. The two important parameters describing fibril formation are the lag-time calculated by t0−2τ and the apparent rate constant kapp 1/τ.
Samples were prepared freshly before each assay. […] The pH of the sample was adjusted to the desired value using appropriate amounts of concentrated NaOH and HCl. Thioflavin T was added to the samples from a stock solution in H2O to a final concentration of 1 μM.
The plate was sealed with Scotch Pad (Qiagen).
Each run was initiated by incubating the plate at the assay temperature for 10 min. The plate was measured every 20 minutes for a desired period of time. Between each measurement, the plate was shaken and heated as described.
The supernatant was filtered through a 0.22 μm filter and an aliquot was transferred to a HPLC vial.
The measurement points were saved in Microsoft Excel format for further processing and curve drawing and fitting was performed using GraphPad Prism. […] The data set may be fitted to Eq. (1).

[2] = molecular target: glucagon receptor (Homo sapiens, UniProt P47871); experiment: cell-based
glucagon receptor, sequence (P47871 26-477): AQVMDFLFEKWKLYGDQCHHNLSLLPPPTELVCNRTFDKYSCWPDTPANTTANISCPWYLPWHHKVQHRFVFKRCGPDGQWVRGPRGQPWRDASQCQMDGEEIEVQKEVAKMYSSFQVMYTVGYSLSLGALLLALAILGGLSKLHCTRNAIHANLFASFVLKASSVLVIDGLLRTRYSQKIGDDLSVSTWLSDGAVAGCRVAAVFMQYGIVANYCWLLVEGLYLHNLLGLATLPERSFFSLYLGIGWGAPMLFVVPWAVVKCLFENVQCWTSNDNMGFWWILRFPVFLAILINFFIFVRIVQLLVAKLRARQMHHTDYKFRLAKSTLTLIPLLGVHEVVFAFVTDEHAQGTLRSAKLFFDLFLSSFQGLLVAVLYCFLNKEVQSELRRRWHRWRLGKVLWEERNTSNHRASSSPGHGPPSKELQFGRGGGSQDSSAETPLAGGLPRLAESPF
Method: The cells (14000 per well) were incubated (37° C., 5% CO2) overnight in 384-well plates. Next day the cells were loaded with a calcium responsive dye that only distributed into the cytoplasm. Probenecid, an inhibitor of the organic anion transporter, was added to prevent the dye from leaving the cell. A PDE inhibitor was added to prevent formatted cAMP from being degraded. […] End point data were collected after 6 minutes. An increase in intracellular cAMP was proportional to an increased in calcium concentrations in the cytoplasm. […] EC50-values were calculated in Prism5.

## CC(C)C[C@H](NC(=O)[C@H](Cc1ccc(O)cc1)NC(=O)[C@H](CCCCN)NC(=O)[C@H](CO)NC(=O)[C@H](Cc1ccc(O)cc1)NC(=O)[C@H](CC(=O)O)NC(=O)[C@H](CO)NC(=O)[C@@H](NC(=O)[C@H](Cc1ccccc1)NC(=O)[C@@H](NC(=O)CNC(=O)[C@H](CCC(N)=O)NC(=O)[C@H](CO)NC(=O)[C@@H](N)Cc1c[nH]cn1)[C@@H](C)O)[C@@H](C)O)C(=O)N[C@@H](CC(=O)O)C(=O)N[C@@H](CO)C(=O)N[C@@H](CCCCN)C(=O)N[C@@H](CCCCN)C(=O)N[C@@H](C)C(=O)N[C@@H](CCC(N)=O)C(=O)N[C@@H](CCC(=O)O)C(=O)N[C@@H](Cc1ccccc1)C(=O)N[C@H](C(=O)N[C@@H](CCC(N)=O)C(=O)N[C@@H](Cc1c[nH]c2ccccc12)C(=O)N[C@@H](CC(C)C)C(=O)N[C@@H](CC(C)C)C(=O)N[C@@H](CC(N)=O)C(=O)N[C@H](C(=O)O)[C@@H](C)O)C(C)C [[K^17, K^18, E^21, L^27] Glucagon, H—HSQGTFTSDYSKYLDSKKAQEFVQWLLNT—OH, reference compound] (H-HSQGTFTSDYSKYLDSKKAQEFVQWLLNT-OH)
[1]
  ThT assay [Lag time]: 1 h
[2]
  EC50: 3 pM
